Holding throughout (assay type): functional
The test system of assay [1] is Enterococcus faecalis. Briefly: In vitro inhibitory activity against Enterococcus faecalis ATCC 29212.
Assay [2] deals with Pseudomonas aeruginosa. Briefly: In vitro inhibitory activity against Pseudomonas aeruginosa ATCC 27853.
The test system of assay [3] is Escherichia coli. Briefly: In vitro inhibitory activity against Escherichia coli ATCC 25922.
Assay [4] relates to Staphylococcus aureus. The assay can be described thus: In vitro inhibitory activity against Staphylococcus aureus MRSA 33591.
The subject of assay [5] is Staphylococcus aureus. The assay can be described thus: In vitro inhibitory activity against Staphylococcus aureus ATCC 29213.
Assay [6] deals with Pseudomonas aeruginosa. Briefly: In vitro inhibitory activity against Pseudomonas aeruginosa ATCC 35151.
Assay [7] has as its system Pseudomonas aeruginosa. Briefly: In vitro inhibitory activity against Pseudomonas aeruginosa PAO-1.
Assay [8] deals with Escherichia coli. Briefly: In vitro inhibitory activity against Escherichia coli ATCC 25922; Value ranges from 0.25-1 ug/mL.
Assay [9] relates to Enterococcus faecalis. Briefly: In vitro inhibitory activity against Enterococcus faecalis ATCC 29212; Value ranges from 8-32 ug/mL.
[10] abbreviates: Enterococcus faecalis, ATCC 29212, read-out: MIC.
[11] abbreviates: Pseudomonas aeruginosa, ATCC 27853, read-out: MIC.
Where [12] appears, read: Escherichia coli, ATCC 25922, read-out: MIC.
Where [13] appears, read: Staphylococcus aureus, ATCC 29213, read-out: MIC.
Setting [14] is: Pseudomonas aeruginosa, ATCC 35151, read-out: MIC.
Setting [15] is: Pseudomonas aeruginosa, read-out: MIC.

SMILES strings stand for the structures. Converted amounts (≈) assume the structure as drawn.

Regarding `CC1OC(OC2C(N)CC(N)C(OC3OC(CN)C(O)CC3N)C2O)C(N)C(O)C1O` (centres undefined), the MIC in [1] (setting [10]), in assay [2] (setting [11]), in assay [3] (setting [12]), in [4] and in assay [5] (setting [13]) was above 64 µg/mL throughout.

`NCC1OC(OC2C(N)CC(N)C(OC3OCC(O)C(O)C3O)C2O)C(N)CC1O` (centres undefined): the minimal inhibitory concentration (MIC) in assay [1] (setting [10]), in [6] (setting [14]), in [2] (setting [11]), in [7] (setting [15]), in assay [3] (setting [12]) and in assay [4] was above 64 µg/mL in each case. For the same compound, in [5] (setting [13]), the MIC is above 64 µg/mL.

`CC1CC(N(C)C)C(O)C(OC2C(N)CC(N)C(OC3OC(CN)C(O)CC3N)C2O)O1` (centres undefined): the minimum inhibitory concentration (MIC) is above 64 µg/mL in assay [1] (setting [10]); 32 µg/mL (≈ 69 µM) in assay [6] (setting [14]); above 64 µg/mL in assay [2] (setting [11]); 64 µg/mL (≈ 138 µM) in [7] (setting [15]); 16 µg/mL (≈ 34.5 µM) in assay [3] (setting [12]); above 64 µg/mL in assay [4]. Also, in assay [5] (setting [13]), the minimal inhibitory concentration (MIC) came out at 32 µg/mL (≈ 69 µM).

Take `NC[C@@H]1O[C@H](O[C@H]2[C@H](O)[C@H](O[C@H]3O[C@@H](CO)[C@@H](O)[C@H](O)[C@@H]3O)[C@H](N)C[C@H]2N)[C@@H](N)C[C@@H]1O`: the MIC in [1] (setting [10]) is above 64 µg/mL; in assay [6] (setting [14]), 16 µg/mL (≈ 34.2 µM); in [2] (setting [11]), 16 µg/mL (≈ 34.2 µM); in assay [7] (setting [15]), 8 µg/mL (≈ 17.1 µM); in assay [3] (setting [12]) it was 32 µg/mL (≈ 68.3 µM); in [4], above 64 µg/mL. Moreover, in assay [5] (setting [13]), the minimal inhibitory concentration (MIC) turned out to be 32 µg/mL (≈ 68.3 µM).

Regarding `NCC1OC(OC2C(N)CC(N)C(OC3OC(CN)C(O)C(O)C3N)C2O)C(N)CC1O` (centres undefined), the minimal inhibitory concentration (MIC) in assay [1] (setting [10]) is above 64 µg/mL; in assay [6] (setting [14]), 16 µg/mL (≈ 34.3 µM); in assay [2] (setting [11]) it was 16 µg/mL (≈ 34.3 µM); in assay [7] (setting [15]) it was 8 µg/mL (≈ 17.1 µM); in assay [3] (setting [12]), 32 µg/mL (≈ 68.6 µM); in [4] it was above 64 µg/mL. In addition, the minimal inhibitory concentration (MIC) in assay [5] (setting [13]) is 8 µg/mL (≈ 17.1 µM).

`NCC1OC(OC2C(N)CC(N)C(OC3OCC(O)C(O)C3N)C2O)C(N)CC1O` (centres undefined): the minimum inhibitory concentration (MIC) is above 64 µg/mL in [1] (setting [10]); 16 µg/mL (≈ 36.6 µM) in [2] (setting [11]); 8 µg/mL (≈ 18.3 µM) in assay [3] (setting [12]); above 64 µg/mL in assay [4]; 16 µg/mL (≈ 36.6 µM) in assay [5] (setting [13]).

On to `CC1OC(OC2C(N)CC(N)C(OC3OC(CN)C(O)CC3N)C2O)C(O)C(O)C1O` (centres undefined), for which the MIC in [1] (setting [10]), in [6] (setting [14]), in assay [2] (setting [11]), in assay [7] (setting [15]), in assay [3] (setting [12]) and in [4] was above 64 µg/mL in each case. In addition, in assay [5] (setting [13]), the MIC was above 64 µg/mL.

Consider `NCC1OC(OC2C(N)CC(N)C(OC3OCC(O)C(N)C3O)C2O)C(N)CC1O` (stereo in doubt; 8u), for which the MIC in assay [2], in assay [3] and in assay [5] was 2 µg/mL (≈ 4.57 µM) each time.

Consider `NCC1OC(OC2C(N)CC(N)C(OC3OCC(O)C(N)C3O)C2O)C(N)CC1O` (stereo in doubt; 8v), for which the minimal inhibitory concentration (MIC) in assay [1] (setting [10]) was above 64 µg/mL; in [2] it was above 64 µg/mL; in [3] it was above 64 µg/mL; in assay [4], above 64 µg/mL; in [5], 32 µg/mL (≈ 73.1 µM).

With `NCC1OC(OC2C(N)CC(N)C(OC3OC(CO)C(O)C(N)C3N)C2O)C(N)CC1O` (stereo in doubt; form 1), the MIC in [1] worked out at 32 µg/mL (≈ 68.6 µM); in assay [6] (setting [14]), 1 µg/mL (≈ 2.14 µM); in assay [2], 2 µg/mL (≈ 4.29 µM); in [7] (setting [15]) it was 1 µg/mL (≈ 2.14 µM); in assay [5] it was 1 µg/mL (≈ 2.14 µM).

With `NCC1OC(OC2C(N)CC(N)C(OC3OC(CO)C(N)C(O)C3N)C2O)C(N)CC1O` (stereo in doubt; form 1), the MIC in assay [1] was above 64 µg/mL; in assay [6], 16 µg/mL (≈ 34.3 µM); in [2] it was 32 µg/mL (≈ 68.6 µM); in assay [7], 16 µg/mL (≈ 34.3 µM); in [3] it was 32 µg/mL (≈ 68.6 µM); in [5], 8 µg/mL (≈ 17.1 µM).

With `NCC1OC(OC2C(N)CC(N)C(OC3OC(CO)C(N)C(N)C3O)C2O)C(N)CC1O` (stereo in doubt; form 1), the minimum inhibitory concentration (MIC) in assay [1] (setting [10]) was above 64 µg/mL; in assay [6], above 64 µg/mL; in assay [2], above 64 µg/mL; in [7], above 64 µg/mL; in [4], above 64 µg/mL; in assay [5], 32 µg/mL (≈ 68.6 µM).

Regarding `NCC1OC(OC2C(N)CC(N)C(OC3OC(CO)C(O)C(N)C3N)C2O)C(N)CC1O` (stereo in doubt; form 2), the MIC was above 64 µg/mL in assay [1] (setting [10]); above 64 µg/mL in assay [2]; above 64 µg/mL in assay [3] (setting [12]); above 64 µg/mL in assay [4]; 64 µg/mL (≈ 137 µM) in [5].

On to `NCC1OC(OC2C(N)CC(N)C(OC3OC(CO)C(N)C(O)C3N)C2O)C(N)CC1O` (stereo in doubt; form 2), for which the MIC in assay [1] (setting [10]) was 32 µg/mL (≈ 68.6 µM); in assay [6], 1 µg/mL (≈ 2.14 µM); in assay [2] it was 2 µg/mL (≈ 4.29 µM); in [7] it was 1 µg/mL (≈ 2.14 µM); in assay [3], 2 µg/mL (≈ 4.29 µM); in assay [4], above 64 µg/mL. This compound also registered an MIC in assay [5] of 1 µg/mL (≈ 2.14 µM).

In the case of `NCC1OC(OC2C(N)CC(N)C(OC3OC(CO)C(N)C(N)C3O)C2O)C(N)CC1O` (stereo in doubt; form 2), the minimal inhibitory concentration (MIC) came out at 64 µg/mL (≈ 137 µM) in assay [1]; 1 µg/mL (≈ 2.14 µM) in [6]; 2 µg/mL (≈ 4.29 µM) in assay [2]; 2 µg/mL (≈ 4.29 µM) in assay [7]; 1 µg/mL (≈ 2.14 µM) in assay [5].

With `NC[C@H]1O[C@H](O[C@H]2[C@H](O)[C@@H](O[C@H]3O[C@H](CO)[C@@H](O)[C@H](N)[C@H]3O)[C@H](N)C[C@@H]2N)[C@H](N)C[C@@H]1O` [TOBRAMYCIN], the MIC in assay [6] (setting [14]) is 0.5 µg/mL (≈ 1.07 µM); in assay [2] (setting [11]), 0.5 µg/mL (≈ 1.07 µM); in assay [8], above 1 µg/mL; in assay [7] (setting [15]), 0.5 µg/mL (≈ 1.07 µM); in [9], above 32 µg/mL; in [4], above 64 µg/mL. In addition, the MIC in assay [5] (setting [13]) worked out at 0.5 µg/mL (≈ 1.07 µM).

What is called MIC is the least concentration at which growth counts as inhibited.
